Source: US20060057093A1, “Preparation for topical use with the function of combating hair loss” (priority 2003, published 2006)

Legend:
[1] = system: transglutaminases in keratinocytes; settings: cited from earlier work
[2] = system: human fibroblast cultures; test: cell-stimulating action on human fibroblast cultures; assay type: cell-based; settings: active ingredient present in the culture medium
Text: The cell-stimulating action of the complex of amino acids with silanol has been tested on human fibroblast cultures. The increase in cell growth was 46% when that active ingredient was present in the culture medium.

Row | Compound | formation of the corneified enclosure of the corneocytes ([1]; keratinocytes in the final stage of differentiation) | synthesis of transglutaminases in keratinocytes ([1]; keratinocytes) | increase in cell growth [2] [%]
1 | CCCC(=O)[O-].[Na+] [sodium butyrate] | capable of stimulating | capable of stimulating the synthesis of transglutaminases | –
2 | monomethylsilanol-hydroxyproline aspartate [complex of amino acids with silanol] | – | – | 46
